Assay results as given in patent publication US20050107316A1, “Agent for inhibiting development or progress of proliferative diseases and especially cancer diseases and pharmaceutical composition containing said agent” (priority 2002, published 2005).

How the values were obtained:
MCF-7 cells = format: cell-based, human
Protocol: (§1) Cancer cell lines HeLa S3 (cervix), MCF-7 (breast) and Saos-2 (osteosarcoma) were grown at 37° C. in 5% CO2 in Ham's F 12, RPMI 1640 and McCoy's 5a medium, respectively containing 10% FBS, 2 mM L-glutamine. To assay for growth inhibition, exponentially growing cells (0.3-2.5×10^4) were seeded into 24-well plates. On the following day cells were incubated with peptides at varying concentrations without serum for 3 h followed by addition of complete medium. On day 3, 6 and 8 cells were treated again and harvested on day 3, 6, 8 and 10 to determine cell numbers using a Hemacytometer. Cell viability was assessed by trypan blue staining. Each experiment was repeated at least three times.

Saos-2 cells = assay: Growth inhibition assay with peptides, Saos-2; format: cell-based, human; conditions: Saos-2, 5 μM
Protocol: as §1

HeLa S3 cells [1] = assay: Growth inhibition assay with peptides, HeLa S3; format: cell-based, human; conditions: HeLa S3, 5 μM
Protocol: as §1

[2] = system: primary epithelial cells (HMEC); assay: Growth inhibition with peptides, primary epithelial cells; format: cell-based, human
HeLa S3 cells [3] = assay: Cell cycle analysis and count of mitotic cells after peptide treatment, HeLa S3; format: cell-based, human
Protocol: Cell cycle analysis was performed using a Cycle TEST™ PLUS DNA reagent kit (Becton Dickinson) according to the manufacturer's instructions. Briefly, cells were washed with PBS, treated with RNase A and stained with propidium iodide (PI). The analysis was performed using a Becton Dickinson FACScan flow cytometer. Using the MODFIT LT 2.0 software (Verity Software House, Topsham, Me.) for each individual sample 30,000 cells were analyzed.
(§2) For staining cells were grown in slide flasks and treated with peptides for 24 h. Then, cells were fixed in 4% paraformaldehyde for 30 min, permeabilized in 0.2% Triton X-100 for 20 min and stained with α-tubulin (Serotec/Biozol, Eching) 1:100, polyclonal rabbit PLK1 1:100, or monoclonal α-tubulin (Sigma) 1:100. Stained cells were analyzed with a confocal laser scan microscope (CLSM) or a fluorescence microscope.

MCF-7 and HeLa S3 cells = assay: Annexin V apoptosis assay and DNA staining after peptide treatment; format: cell-based, human
Protocol: Cells were seeded into 6-well plates, allowed to attach overnight, and then treated with different peptides at a concentration of 10 μM. Cells were trypsinized after 16 h and incubated with Annexin V according to the manufacturer's recommendations (Mo Bi Tech).

HeLa S3 cells [4] = assay: DNA and tubulin staining of polo-box-treated cells; format: cell-based, human
Protocol: as §2

PLK1 = assay: In vitro kinase assay with PLK1 purified from Sf 9 cells; format: biochemical, human
Protocol: PLK1 purified from Sf 9 cells was incubated with 0.5-1 μg of PLK1-specific substrates and 2 μCi of […] for 20 min at 37° C. in kinase buffer (20 mM HEPES pH 7.4, 150 mM KCl, 10 mM MgCl2, 1 mM EGTA, 0.5 mM DTT, 5 mM NaF, 0.1 mM Na3VO4 and 100 μM ATP).

H-WVSKWVDYSDKYGLGYQLCDRQIKIWFQNRRMKWKK-OH [Peptide P1]
Concentration with general toxic effect (MCF-7 cells): above 20 μM | Concentrations that started to inhibit proliferation (MCF-7 cells; MCF-7): above 1 μM | Range of dose-dependent inhibition of proliferation (MCF-7 cells; MCF-7): 1 to 10 µM | Inhibitory effect on cell proliferation (MCF-7 cells; MCF-7, 5 μM): most prominent in MCF-7 cells | Growth behavior (MCF-7 cells; MCF-7, 0.01 to 0.5 μM): did not affect the growth behavior | Inhibitory effect on cell proliferation (Saos-2 cells): intermediate effect | Inhibitory effect on cell proliferation (HeLa S3 cells [1]): little inhibition | Inhibition of proliferation [2]: to a much lower extent than MCF-7 cells | Increase of mitotic cells compared to control cells (HeLa S3 cells [3]; HeLa S3, 24 h, 5 μM): 3-4 fold | Percentage of mitotic cells (HeLa S3 cells [3]; HeLa S3, 24 h, 5 μM): 14.7% | Increase of cells in G2/M compared to control cells (HeLa S3 cells [3]; HeLa S3, day 6, 5 μM): 25-35% | Apoptotic cells (MCF-7 and HeLa S3 cells; 10 μM, 16 h annexin V and PI, DNA staining after 1 day): elevated percentage of apoptotic cells | Apoptotic peak (MCF-7 and HeLa S3 cells; time of treatment): 24 h | Start of the inhibitory effect (MCF-7 and HeLa S3 cells; time of treatment): 10 h | Chromosomes (HeLa S3 cells [4]): misaligned, not properly segregated and partially condensed | Inhibitory effect on phosphorylation (PLK1; 6.25 to 25.0 μM, wild-type compared with mutated form P2): at least two fold more inhibition | Phosphorylation of substrates by PLK1 (PLK1; 37° C., 20 min): decreased the phosphorylation of substrates clearly | Inhibitory effect on phosphorylation (PLK1; below 1.56 μM): still exhibited some effect
